Data: article PMC10548421, “Anticancer Potential of Diruthenium Complexes with Bridging Hydrocarbyl Ligands from Bioactive Alkynols” (Inorganic Chemistry, 2023)

Assay: Cyclic voltammetry in CH2Cl2/[N^nBu4]PF6
Format: physicochemical
Conditions: CH2Cl2/[N^nBu4]PF6 0.2 M
Experimental: Cyclic voltammetry measurements were conducted by using a PalmSens4 instrument connected to a computer operating with the PSTrace5 electrochemical software. Prior to use, anhydrous CH2Cl2 (Merck) was stored under argon over 3 Å molecular sieves. Both [N^nBu4]PF6 (electrochemical grade) and FeCp2, obtained from Fluka, were utilized without requiring additional purification. Cyclic voltammetries were carried out under argon by utilizing a 0.2 M solution of [N^nBu4]PF6 in CH2Cl2 as the supporting electrolyte. The working electrode and the counter electrode were comprised of a platinum disk and a platinum gauze, respectively, both enclosed within a glass tube. A leakage-free miniature electrode of Ag/AgCl/KCl (from eDAQ) was employed as a reference. The three-electrode designed cell was subjected to predrying via vacuum heating and then filled with argon gas. The Schlenk-type design of the cell was effective in upholding both anhydrous and anaerobic conditions. Subsequently, a solution of supporting electrolyte, prepared under argon, was introduced into the cell, and the CV of the solvent was acquired. Afterward, the analyte was introduced, and voltammograms were recorded. Under the selected experimental conditions, the one-electron oxidation of ferrocene occurred at a standard potential of E° = +0.45 V relative to Ag/AgCl/KCl.

[1] = vs Ag/AgCl/KCl, peak potential of irreversible process

SMILES: F[B-](F)(F)F.O=[C]=[Ru+]1([CH]2C=CC=C2)[C](=O)[Ru]1(=[C]=O)([CH]=C=C1CCCC1)[CH]1C=CC=C1 (stereo not shown) [3a, [Ru2Cp2(CO)3{μ–η^1:η^2-CH=C=(cyclopentylidene)}]BF4]
- Formal electrode potential, oxidation [1]: +1.61 V
- Formal electrode potential, reduction [1]: –1.00 V
- Formal electrode potential, oxidation (vs FeCp2 (in parentheses)): +1.15 V
- Formal electrode potential, reduction (vs FeCp2 (in parentheses)): −1.46 V
